For five compounds, MIC results are on record in ChEMBL document CHEMBL4831518, “Structure-aided optimization of non-nucleoside M. tuberculosis thymidylate kinase inhibitors” (Eur J Med Chem, 2021).

The test system of assay [1] is Mycobacterium tuberculosis. In words: Antibacterial activity against Mycobacterium tuberculosis H37Rv harboring mmr deletion mutant assessed as inhibition of bacterial growth incubated for 6 hrs by microdilution assay. Type of assay: functional. On the technique in general: In broth dilution the organism is exposed to a series of concentrations in liquid medium.
Assay [2] relates to Mycobacterium tuberculosis. Briefly: Antibacterial activity against Mycobacterium tuberculosis H37Rv harboring Tap deletion mutant assessed as inhibition of bacterial growth incubated for 6 hrs by microdilution assay. The format is functional.

Structures are written as SMILES. Values after ≈ are worked out from the molar mass of the structure shown.

As a reminder, the MIC is the lowest concentration found to suppress growth. Turning to `COc1ccc(Oc2cccc(CN3CCC(n4cc(C)c(=O)[nH]c4=O)CC3)c2)cc1`, the MIC in assay [1] stood at 15.6 µg/mL (≈ 37 µM); in assay [2], 31.25 µg/mL (≈ 74.1 µM).
In the same order, the values of `Cc1ccc(Oc2cccc(CN3CCC(n4cc(C)c(=O)[nH]c4=O)CC3)c2)cc1` are 15.6 µg/mL (≈ 38.5 µM) and 15.6 µg/mL (≈ 38.5 µM).
On to `Cc1cn(C2CCN(Cc3cccc(Oc4ccccc4)n3)CC2)c(=O)[nH]c1=O`, for which the MIC in assay [1] and in assay [2] was >250 µg/mL in each case.
Consider `Cc1cn(C2CCN(Cc3ccnc(Oc4cccc(Cl)c4)c3)CC2)c(=O)[nH]c1=O`, for which the MIC in assay [1] and in assay [2] was 31.25 µg/mL (≈ 73.2 µM) in each case.
As for `Cc1cn(C2CCN(Cc3cccc(Oc4cc(Cl)cc(Cl)c4)c3)CC2)c(=O)[nH]c1=O`, the MIC in assay [1] and in assay [2] was 15.6 µg/mL (≈ 33.9 µM) throughout.
